Test results published in ChEMBL document CHEMBL5576135, “Discovery of Indolo[3,2-c]isoquinoline Derivatives as Novel Top1/2 Dual Inhibitors with Orally Efficacious Antitumor Activity and Low Toxicity” (J Med Chem, 2024).
Activity calls are given as the source filed them. The calls are words filed in the database; no cut-off is given here.

What was measured:
MCF7 = test: Antiproliferative activity against human MCF7 cells assessed as inhibition of cell growth incubated for 96 hrs by MTT based ELISA; assay type: functional; conditions: MCF7, 96 h
MDA-MB-231 = test: Antiproliferative activity against human MDA-MB-231 cells assessed as inhibition of cell growth incubated for 96 hrs by MTT based ELISA; assay type: functional; conditions: MDA-MB-231, 96 h
PC-3 = test: Antiproliferative activity against human PC-3 cells assessed as inhibition of cell growth incubated for 96 hrs by MTT based ELISA; assay type: functional; conditions: PC-3, 96 h
HCT-116 [1] = test: Antiproliferative activity against human HCT-116 cells assessed as inhibition of cell growth incubated for 96 hrs by MTT based ELISA; assay type: functional; conditions: HCT-116, 96 h
NCI-H2228 = test: Antiproliferative activity against human NCI-H2228 cells assessed as inhibition of cell growth incubated for 96 hrs by MTT based ELISA; assay type: functional; conditions: NCI-H2228, 96 h
Huh-7 = test: Antiproliferative activity against human Huh-7 cells assessed as inhibition of cell growth incubated for 96 hrs by MTT based ELISA; assay type: functional; conditions: Huh-7, 96 h
NCI-H1975 = test: Antiproliferative activity against human NCI-H1975 cells assessed as inhibition of cell growth incubated for 96 hrs by MTT based ELISA; assay type: functional; conditions: NCI-H1975, 96 h
NCI-H1650 = test: Antiproliferative activity against human NCI-H1650 cells assessed as inhibition of cell growth incubated for 96 hrs by MTT based ELISA; assay type: functional; conditions: NCI-H1650, 96 h
A549 = test: Antiproliferative activity against human A549 cells assessed as inhibition of cell growth incubated for 96 hrs by MTT based ELISA; assay type: functional; conditions: A549, 96 h
PC-9 = test: Antiproliferative activity against human PC-9 cells assessed as inhibition of cell growth incubated for 96 hrs by MTT based ELISA; assay type: functional; conditions: PC-9, 96 h
NCI-H446 [2] = test: Antiproliferative activity against human NCI-H446 cells assessed as inhibition of cell growth incubated for 96 hrs by MTT based ELISA; assay type: functional; conditions: NCI-H446, 96 h
DU-145 = test: Antiproliferative activity against human DU-145 cells assessed as inhibition of cell growth incubated for 96 hrs by MTT based ELISA; assay type: functional; conditions: DU-145, 96 h
[3] = Antiproliferative activity against human BEAS-2B cells assessed as inhibition of cell growth incubated for 96 hrs by MTT based ELISA; assay type: toxicity
NCI-H446 [4] = test: Induction of DNA damage in human NCI-H446 cells assessed as tail DNA at 8 uM incubated for 48 hrs by comet assay relative to control; assay type: functional
NCI-H446 [5] = test: Induction of DNA damage in human NCI-H446 cells assessed as increase in intracellular gamma-H2AX level at 8 uM incubated for 48 hrs by Western blotting analysis; assay type: functional, cell-based
NCI-H446 [6] = test: Induction of DNA damage in human NCI-H446 cells assessed as increase in intracellular ROS level at 8 uM incubated for 6 hrs by DCFHDA probe based fluorescence microscopic analysis; assay type: functional, cell-based
NCI-H446 [7] = test: Induction of cell cycle arrest in human NCI-H446 cells assessed as accumulation of cells at S phase at 8 uM incubated for 48 hrs by propidium iodide/RNase A staining based flow cytometry; assay type: functional
NCI-H446 [8] = test: Induction of cell cycle arrest in human NCI-H446 cells assessed as accumulation of cells at G2/M phase at 8 uM incubated for 48 hrs by propidium iodide/RNase A staining based flow cytometry; assay type: functional
NCI-H446 [9] = test: Induction of apoptosis in human NCI-H446 cells at 8 uM incubated for 48 hrs by Annexin V-FITC/PI staining based flow cytometry relative to control; assay type: functional
NCI-H446 [10] = test: Inhibition of colony formation in human NCI-H446 cells at 1 uM incubated for 24 hrs by crystal violet staining based analysis relative to control; assay type: functional
NCI-H446 [11] = test: Inhibition of colony formation in human NCI-H446 cells at 2 uM incubated for 24 hrs by crystal violet staining based analysis relative to control; assay type: functional
NCI-H446 [12] = test: Inhibition of cell migration in human NCI-H446 cells at 4 uM incubated for 48 hrs by phase-contrast microscopic analysis relative to control; assay type: functional
[13] = Toxicity in Kunming mouse assessed as reduction in body weight at 30 mg/kg,ip administrated for 3 days; assay type: organism-based; design: scale not given: the % may be the effect or the level left; conditions: in vivo, 72 h, time 3 day
HCT-116 [14] = test: Antitumor activity against human HCT-116 cells xenografted with BALB/c mouse assessed as tumor growth inhibition at 20 mg/kg,ip administrated twice weekly for 21 days relative to control; assay type: functional, organism-based; conditions: time 21.0 day
HCT-116 [15] = test: Antitumor activity against human HCT-116 cells xenografted with BALB/c mouse assessed as tumor growth inhibition by measuring T/C ratio at 20 mg/kg,ip administrated twice weekly for 21 days; assay type: functional, organism-based; conditions: time 21.0 day
[16] = molecular target: T1, DNA topoisomerase 1 (Homo sapiens) (UniProt P11387); test: Inhibition of Topoisomerase I (unknown origin) using pBR322 DNA as substrate at 200 uM incubated for 15 mins by EtBr staining based agarose gel electrophoresis method relative to control
T1 sequence (whole entry): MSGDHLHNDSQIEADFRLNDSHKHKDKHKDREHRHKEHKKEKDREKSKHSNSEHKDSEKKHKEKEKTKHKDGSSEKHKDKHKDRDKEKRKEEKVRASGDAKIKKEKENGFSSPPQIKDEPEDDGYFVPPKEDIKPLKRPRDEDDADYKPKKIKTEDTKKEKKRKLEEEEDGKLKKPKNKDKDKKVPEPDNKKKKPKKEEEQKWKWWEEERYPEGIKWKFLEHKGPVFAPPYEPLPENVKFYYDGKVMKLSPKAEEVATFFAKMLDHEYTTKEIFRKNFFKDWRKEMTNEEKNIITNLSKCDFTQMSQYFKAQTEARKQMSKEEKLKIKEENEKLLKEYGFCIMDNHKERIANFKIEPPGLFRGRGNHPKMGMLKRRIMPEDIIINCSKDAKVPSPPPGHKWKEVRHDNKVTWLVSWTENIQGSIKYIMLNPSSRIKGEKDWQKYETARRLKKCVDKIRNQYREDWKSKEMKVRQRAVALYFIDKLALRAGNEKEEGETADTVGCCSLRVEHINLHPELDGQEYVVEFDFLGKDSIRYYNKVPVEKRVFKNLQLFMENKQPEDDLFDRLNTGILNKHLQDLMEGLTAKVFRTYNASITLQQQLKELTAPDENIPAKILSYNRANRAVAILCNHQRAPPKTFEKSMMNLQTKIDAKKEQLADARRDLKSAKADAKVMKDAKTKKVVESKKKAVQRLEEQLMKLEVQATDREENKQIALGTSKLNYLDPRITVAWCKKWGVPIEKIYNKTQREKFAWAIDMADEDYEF

[17] = molecular target: DNA topoisomerase 2-alpha (Homo sapiens) (UniProt P11388); test: Inhibition of Topoisomerase 2 (unknown origin) using pBR322 DNA as substrate at 100 uM incubated for 15 mins by EtBr staining based agarose gel electrophoresis method relative to control
DNA topoisomerase 2-alpha (Homo sapiens), sequence (P11388 whole entry): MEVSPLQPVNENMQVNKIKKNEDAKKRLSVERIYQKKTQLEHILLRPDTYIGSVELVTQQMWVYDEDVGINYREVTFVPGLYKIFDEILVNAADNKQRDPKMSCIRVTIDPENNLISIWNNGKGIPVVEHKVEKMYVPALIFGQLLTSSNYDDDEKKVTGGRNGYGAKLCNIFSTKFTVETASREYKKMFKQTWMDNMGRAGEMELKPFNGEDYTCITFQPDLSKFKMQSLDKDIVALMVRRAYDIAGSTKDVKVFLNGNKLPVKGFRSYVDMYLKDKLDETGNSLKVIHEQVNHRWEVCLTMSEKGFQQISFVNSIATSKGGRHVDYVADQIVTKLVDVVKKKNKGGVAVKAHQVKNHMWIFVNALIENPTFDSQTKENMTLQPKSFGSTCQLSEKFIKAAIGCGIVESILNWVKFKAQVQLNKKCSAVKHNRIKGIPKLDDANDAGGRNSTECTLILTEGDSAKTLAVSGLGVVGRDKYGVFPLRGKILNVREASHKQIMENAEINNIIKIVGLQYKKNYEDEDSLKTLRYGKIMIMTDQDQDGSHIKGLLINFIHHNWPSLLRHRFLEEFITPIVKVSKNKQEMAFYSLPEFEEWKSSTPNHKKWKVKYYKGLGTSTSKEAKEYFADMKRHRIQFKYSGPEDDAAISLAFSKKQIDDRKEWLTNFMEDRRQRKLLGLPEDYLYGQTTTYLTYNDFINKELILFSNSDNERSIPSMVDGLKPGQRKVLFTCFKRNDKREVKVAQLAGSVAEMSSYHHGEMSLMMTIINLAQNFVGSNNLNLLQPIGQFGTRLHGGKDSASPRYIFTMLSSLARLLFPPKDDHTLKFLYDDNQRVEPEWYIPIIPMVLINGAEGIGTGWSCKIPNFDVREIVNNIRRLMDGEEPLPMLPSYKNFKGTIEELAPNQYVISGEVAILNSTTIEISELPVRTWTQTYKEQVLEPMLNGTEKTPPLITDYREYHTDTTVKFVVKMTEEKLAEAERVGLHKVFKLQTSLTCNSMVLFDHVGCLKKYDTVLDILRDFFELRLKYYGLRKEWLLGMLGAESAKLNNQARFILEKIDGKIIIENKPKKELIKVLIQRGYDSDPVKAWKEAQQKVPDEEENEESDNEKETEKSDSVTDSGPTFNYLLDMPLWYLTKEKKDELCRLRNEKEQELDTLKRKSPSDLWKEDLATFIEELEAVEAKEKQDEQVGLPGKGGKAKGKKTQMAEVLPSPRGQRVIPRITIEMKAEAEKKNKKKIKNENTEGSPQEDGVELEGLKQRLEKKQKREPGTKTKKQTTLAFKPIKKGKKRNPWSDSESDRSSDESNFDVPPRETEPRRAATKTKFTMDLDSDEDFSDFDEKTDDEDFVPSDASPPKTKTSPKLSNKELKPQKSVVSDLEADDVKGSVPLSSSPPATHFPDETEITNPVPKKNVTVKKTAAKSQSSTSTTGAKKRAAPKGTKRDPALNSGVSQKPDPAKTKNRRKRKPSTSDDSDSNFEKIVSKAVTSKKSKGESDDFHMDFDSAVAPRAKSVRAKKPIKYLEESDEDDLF

[18] = molecular target: T1, DNA topoisomerase 1 (Homo sapiens); test: Inhibition of Topoisomerase I (unknown origin) using pBR322 DNA as substrate at 50 uM incubated for 15 mins by EtBr staining based agarose gel electrophoresis method
[19] = molecular target: DNA topoisomerase 2-alpha (Homo sapiens) (UniProt P11388); test: Inhibition of Topoisomerase 2 (unknown origin) using pBR322 DNA as substrate at 50 uM incubated for 15 mins by EtBr staining based agarose gel electrophoresis method
[20] = molecular target: T1, DNA topoisomerase 1 (Homo sapiens); test: Inhibition of Topoisomerase I (unknown origin) using pBR322 DNA as substrate at 10 uM incubated for 15 mins by EtBr staining based agarose gel electrophoresis method
[21] = Toxicity in Kunming mouse assessed as lethal dose at po administration for 2 weeks; assay type: organism-based; conditions: in vivo
[22] = Toxicity in Kunming mouse assessed as reduction in body weight at 100 mg/kg,po administrated for 3 days; assay type: organism-based; design: scale not given: the % may be the effect or the level left; conditions: in vivo, 72 h, time 3 day
[23] = molecular target: T1, DNA topoisomerase 1 (Homo sapiens); test: Inhibition of Topoisomerase I (unknown origin) using pBR322 DNA as substrate at 5 uM incubated for 15 mins by EtBr staining based agarose gel electrophoresis method
[24] = molecular target: T1, DNA topoisomerase 1 (Homo sapiens); test: Inhibition of Topoisomerase I (unknown origin) using pBR322 DNA as substrate at 1 uM incubated for 15 mins by EtBr staining based agarose gel electrophoresis method
[25] = molecular target: T1, DNA topoisomerase 1 (Homo sapiens); test: Inhibition of Topoisomerase I (unknown origin) using pBR322 DNA as substrate at 2 uM incubated for 15 mins by EtBr staining based agarose gel electrophoresis method
[26] = molecular target: DNA topoisomerase 2-alpha (Homo sapiens) (UniProt P11388); test: Inhibition of Topoisomerase 2 (unknown origin) using pBR322 DNA as substrate at 0.5 uM incubated for 15 mins by EtBr staining based agarose gel electrophoresis method
[27] = molecular target: DNA topoisomerase 2-alpha (Homo sapiens) (UniProt P11388); test: Inhibition of Topoisomerase 2 (unknown origin) using pBR322 DNA as substrate at 10 uM incubated for 15 mins by EtBr staining based agarose gel electrophoresis method
NCI-H446 [28] = test: Antitumor activity against human NCI-H446 cells xenografted with BALB/c mouse assessed as tumor growth inhibition at 4 mg/kg,ip administrated 3 times weekly for 21 days in presence of cisplatin relative to control; assay type: functional; conditions: NCI-H446, 504 h, time 21 day, read-out: TGI
NCI-H446 [29] = test: Antitumor activity against human NCI-H446 cells xenografted with BALB/c mouse assessed as tumor growth inhibition by measuring T/C ratio at 4 mg/kg,ip administrated 3 times weekly for 21 days in presence of cisplatin; assay type: functional; conditions: time 21 day

Compound	IC50 (MCF7) [nM]	IC50 (MDA-MB-231) [nM]	IC50 (PC-3) [nM]	IC50 (HCT-116 [1]) [nM]	IC50 (NCI-H2228) [nM]	IC50 (Huh-7) [nM]	inhibition [16] [%]	inhibition [17] [%]	inhibition [18]	inhibition [19]	inhibition [20]	other results
CCc1c2c(nc3ccc(OC(=O)N4CCC(N5CCCCC5)CC4)cc13)-c1cc3c(c(=O)n1C2)COC(=O)[C@]3(O)CC [IRINOTECAN]	4590	> 10000	3670	3160	3430	> 10000						IC50 (NCI-H1975): 3410 nM; IC50 (NCI-H1650): 6800 nM; IC50 (A549): > 10000 nM; IC50 (PC-9): 3840 nM; IC50 (NCI-H446 [2]): 780 nM; IC50 (DU-145): 960 nM; IC50 at 96 h [3]: > 10000 nM; Activity (NCI-H446 [4]): 27.8%; Activity (NCI-H446 [5]): Active; Activity (NCI-H446 [6]): Active; Activity (NCI-H446 [7]): 59.3%; Activity (NCI-H446 [8]): 59.3%; Activity (NCI-H446 [9]): 5.3%; inhibition at 1 µM (NCI-H446 [10]): 85.8%; inhibition at 2 µM (NCI-H446 [11]): 33.7%; inhibition at 4 µM (NCI-H446 [12]): 54.5%; Activity [13]: > 10%; inhibition (HCT-116 [14]): Active; inhibition (HCT-116 [15]): Active
CC[C@@]1(O)C(=O)OCc2c1cc1n(c2=O)Cc2cc3c(CN(C)C)c(O)ccc3nc2-1 [TOPOTECAN]												LD50 at 336 h [21]: < 1000 mg/kg; Activity [22]: > 10%
O=C(CCCn1c2cc3c(cc2c2ncc4ccccc4c21)OCO3)NO	2320	950	1550	1320	3070	2890	> 95	> 95	Active	Active	Active	
O=C(CCCn1c2cc3c(cc2c2nc(Cl)c4ccccc4c21)OCO3)NO	2860	1640	2440	1870	3640	4100	> 95	> 95	Active	Active	Active	inhibition [23]: Active; inhibition [24]: Active; inhibition [25]: Active; inhibition [26]: Active; inhibition [27]: Active

Further compounds by falling IC50 (MCF7), results first:

IC50 (MCF7) [nM]	IC50 (MDA-MB-231) [nM]	IC50 (PC-3) [nM]	IC50 (HCT-116 [1]) [nM]	IC50 (NCI-H2228) [nM]	IC50 (Huh-7) [nM]	inhibition [16] [%]	inhibition [17] [%]	inhibition [18]	inhibition [19]	inhibition [20]	Compound	other results
1510	980	1660	740	2390	2980	> 95	> 95	Active	Active	Active	COc1ccc2c(c1)c1nc(Cl)c3ccccc3c1n2CCCC(=O)NO	
1180	2870	1590	2000	2510	3800						COc1cc([C@@H]2c3cc4c(cc3[C@@H](O[C@@H]3O[C@@H]5CO[C@@H](C)O[C@H]5[C@H](O)[C@H]3O)[C@H]3COC(=O)[C@H]23)OCO4)cc(OC)c1O [ETOPOSIDE]	IC50 (NCI-H1975): 340 nM; IC50 (NCI-H1650): 2650 nM; IC50 (A549): > 10000 nM; IC50 (PC-9): 2220 nM; IC50 (NCI-H446 [2]): 240 nM; IC50 (DU-145): 1650 nM; IC50 at 96 h [3]: > 10000 nM; Activity [13]: > 10%; inhibition in vivo at 4 mg/kg (NCI-H446 [28]): 27.7%; T/C (NCI-H446 [29]): 68.2%
600	480	630	220	1160	1240	> 95	> 95	Active	Active	Active	CN(C)CCCn1c2cc3c(cc2c2[nH]c(=O)c4ccccc4c21)OCO3	
370	560	470	260	960	940	> 95	> 95	Active	Active	Active	CN(C)CCCn1c2cc3c(cc2c2nc(Cl)c4ccccc4c21)OCO3	
